Data published in patent publication US8653263B2 (Janssen Pharmaceutica, priority 2009, dated 2014).

These molecules were tested against human orexin-2 receptor (Homo sapiens (Human), UniProt O43614) (assay: Human orexin 2 receptor radioligand binding ([3H]-EMPA competition)). Settings: HEK293 cells stably expressing human orexin-2 receptor; [3H]-EMPA 5 nM final; apparent Ki=IC50/(1+C/Kd), Kd=2 nM; read-out: OR 2 Ki.
Sequence of human orexin-2 receptor (O43614 whole entry): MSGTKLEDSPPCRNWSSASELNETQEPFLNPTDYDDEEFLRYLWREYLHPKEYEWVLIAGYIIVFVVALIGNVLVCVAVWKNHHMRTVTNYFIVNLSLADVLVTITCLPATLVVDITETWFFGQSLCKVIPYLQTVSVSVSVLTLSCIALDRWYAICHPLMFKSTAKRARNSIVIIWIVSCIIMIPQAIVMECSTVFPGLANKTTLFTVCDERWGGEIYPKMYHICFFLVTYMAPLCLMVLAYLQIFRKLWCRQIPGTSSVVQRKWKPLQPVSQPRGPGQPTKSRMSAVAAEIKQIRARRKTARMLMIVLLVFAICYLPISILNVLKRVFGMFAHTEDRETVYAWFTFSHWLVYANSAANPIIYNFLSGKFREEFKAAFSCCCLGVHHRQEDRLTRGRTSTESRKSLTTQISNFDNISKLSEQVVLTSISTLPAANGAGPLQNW

`Cc1cc(C)nc(N2CC3CN(C(=O)c4ccc(F)cc4-c4ncccc4F)CC3C2)n1` (centres unmarked) [Example 346, (5-(4,6-Dimethylpyrimidin-2-yl)hexahydropyrrolo[3,4-c]pyrrol-2(1H)-yl)(4-fluoro-2-(3-fluoropyridin-2-yl)phenyl)methanone] and `Cc1cc(C)nc(N2CC3CN(C(=O)c4cccc(F)c4-c4ncccc4F)CC3C2)n1` (centres unmarked) [Example 375, (5-(4,6-Dimethylpyrimidin-2-yl)hexahydropyrrolo[3,4-c]pyrrol-2(1H)-yl)(3-fluoro-2-(3-fluoropyridin-2-yl)phenyl)methanone] are within 1.5-fold of each other in Ki: 0.025 µM for the first, 0.021 µM for the second.

Going from `CCCOc1cccnc1C(=O)N1CC2CN(c3cnc4ccccc4n3)CC2C1` (centres unmarked) [Example 347, (3-Propoxypyridin-2-yl)(5-(quinoxalin-2-yl)hexahydropyrrolo[3,4-c]pyrrol-2(1H)-yl)methanone] to `Cc1ccoc1C(=O)N1CC2CN(c3cnc4ccccc4n3)CC2C1` (centres unmarked) [Example 355, (3-Methylfuran-2-yl)(5-(quinoxalin-2-yl)hexahydropyrrolo[3,4-c]pyrrol-2(1H)-yl)methanone], the Ki rises from 3.1 µM to 10 µM (3.2-fold).

`COc1cccc(OC)c1C(=O)N1CC2CN(c3ccc(C(F)(F)F)cn3)CC2C1` (centres unmarked) [Example 349, 2-[(2,6-Dimethoxyphenyl)carbonyl]-5-[5-(trifluoromethyl)pyridin-2-yl]octahydropyrrolo[3,4-c]pyrrole] and `Cc1ccoc1C(=O)N1CC2CN(c3ccc(C(F)(F)F)cn3)CC2C1` (centres unmarked) [Example 353, 2-[(3-Methylfuran-2-yl)carbonyl]-5-[5-(trifluoromethyl)pyridin-2-yl]octahydropyrrolo[3,4-c]pyrrole] are the same in Ki: 10 µM for the first, 10 µM for the second.

First: COc1cccc(OC)c1C(=O)N1CC2CN(c3nc(C)cc(C)n3)CC2C1 (centres unmarked) [Example 351, (2,6-Dimethoxyphenyl)(5-(4,6-dimethylpyrimidin-2-yl)hexahydropyrrolo[3,4-c]pyrrol-2(1H)-yl)methanone]
Second: Cc1cc(C)nc(N2CC3CN(C(=O)c4occc4C)CC3C2)n1 (centres unmarked) [Example 352, (5-(4,6-Dimethylpyrimidin-2-yl)hexahydropyrrolo[3,4-c]pyrrol-2(1H)-yl)(3-methylfuran-2-yl)methanone]
The Ki of the first is 8.3-fold lower: 1.2 µM for the first, 10 µM for the second.

`Cc1cc(C)nc(N2CC3CN(S(=O)(=O)c4ccccc4-c4ccccc4)CC3C2)n1` (centres unmarked) [Example 358, 2-([1,1′-Biphenyl]-2-ylsulfonyl)-5-(4,6-dimethylpyrimidin-2-yl)octahydropyrrolo[3,4-c]pyrrole] and `COc1ccccc1S(=O)(=O)N1CC2CN(c3nc(C)cc(C)n3)CC2C1` (centres unmarked) [Example 359, 2-(4,6-Dimethylpyrimidin-2-yl)-5-((2-methoxyphenyl)sulfonyl)octahydropyrrolo[3,4-c]pyrrole] are within 1.5-fold of each other in Ki: 0.23 µM for the first, 0.18 µM for the second.

First: COc1ccccc1S(=O)(=O)N1CC2CN(c3ccc(C(F)(F)F)cn3)CC2C1 (centres unmarked) [Example 361, 2-((2-Methoxyphenyl)sulfonyl)-5-(5-(trifluoromethyl)pyridin-2-yl)octahydropyrrolo[3,4-c]pyrrole]
Second: COc1ccccc1S(=O)(=O)N1CC2CN(c3cnc4ccccc4n3)CC2C1 (centres unmarked) [Example 362, 2-(5-((2-Methoxyphenyl)sulfonyl)hexahydropyrrolo[3,4-c]pyrrol-2(1H)-yl)quinoxaline]
The Ki of the first is 2.4-fold higher: 4.4 µM for the first, 1.8 µM for the second. The second binds more tightly here.

Going from `Cc1cc(C)nc(N2CC3CN(C(=O)c4ccc(F)cc4-c4ccccn4)CC3C2)n1` (centres unmarked) [Example 366, (5-(4,6-Dimethylpyrimidin-2-yl)hexahydropyrrolo[3,4-c]pyrrol-2(1H)-yl)(4-fluoro-2-(pyridin-2-yl)phenyl)methanone] to `Cc1cc(C)nc(N2CC3CN(C(=O)c4cccc(F)c4-c4ccccn4)CC3C2)n1` (centres unmarked) [Example 367, (5-(4,6-Dimethylpyrimidin-2-yl)hexahydropyrrolo[3,4-c]pyrrol-2(1H)-yl)(3-fluoro-2-(pyridin-2-yl)phenyl)methanone], the Ki falls from 0.023 µM to 0.015 µM (1.5-fold).

`Cc1cc(C)nc(N2CC3CN(C(=O)c4ccc(F)cc4-c4ncco4)CC3C2)n1` (centres unmarked) [Example 369, (5-(4,6-Dimethylpyrimidin-2-yl)hexahydropyrrolo[3,4-c]pyrrol-2(1H)-yl)(4-fluoro-2-(oxazol-2-yl)phenyl)methanone] and `Cc1cc(C)nc(N2CC3CN(C(=O)c4cccc(F)c4-c4ncco4)CC3C2)n1` (centres unmarked) [Example 376, (5-(4,6-Dimethylpyrimidin-2-yl)hexahydropyrrolo[3,4-c]pyrrol-2(1H)-yl)(3-fluoro-2-(oxazol-2-yl)phenyl)methanone] are within 1.5-fold of each other in Ki: 0.019 µM for the first, 0.017 µM for the second.

Going from `Cc1cccc(-c2c(F)cccc2C(=O)N2CC3CN(c4nc(C)cc(C)n4)CC3C2)n1` (centres unmarked) [Example 370, (5-(4,6-Dimethylpyrimidin-2-yl)hexahydropyrrolo[3,4-c]pyrrol-2(1H)-yl)(3-fluoro-2-(6-methylpyridin-2-yl)phenyl)methanone] to `Cc1ccnc(-c2c(F)cccc2C(=O)N2CC3CN(c4nc(C)cc(C)n4)CC3C2)c1` (centres unmarked) [Example 373, (5-(4,6-Dimethylpyrimidin-2-yl)hexahydropyrrolo[3,4-c]pyrrol-2(1H)-yl)(3-fluoro-2-(4-methylpyridin-2-yl)phenyl)methanone], the Ki falls from 0.084 µM to 0.042 µM (2-fold). The second binds more tightly here.

First: Cc1cc(C)nc(N2CC3CN(C(=O)c4cccc(F)c4-c4ncccc4C)CC3C2)n1 (centres unmarked) [Example 371, (5-(4,6-Dimethylpyrimidin-2-yl)hexahydropyrrolo[3,4-c]pyrrol-2(1H)-yl)(3-fluoro-2-(3-methylpyridin-2-yl)phenyl)methanone]
Second: Cc1cc(C)nc(N2CC3CN(C(=O)c4cccc(F)c4-c4ncccc4Cl)CC3C2)n1 (centres unmarked) [Example 372, (2-(3-Chloropyridin-2-yl)-3-fluorophenyl)(5-(4,6-dimethylpyrimidin-2-yl)hexahydropyrrolo[3,4-c]pyrrol-2(1H)-yl)methanone]
The Ki of the first is 31-fold higher: 3.4 µM for the first, 0.109 µM for the second.

Going from `COc1ccc(C(=O)N2CC3CN(c4ncc(F)c(C)n4)CC3C2)c(-n2nccn2)c1` (centres unmarked) [Example 377, 2-(5-Fluoro-4-methylpyrimidin-2-yl)-5-{[4-methoxy-2-(2H-1,2,3-triazol-2-yl)phenyl]carbonyl}octahydropyrrolo[3,4-c]pyrrole] to `COc1ccc(C(=O)N2CC3CN(c4ncc(Cl)c(C)n4)CC3C2)c(-n2nccn2)c1` (centres unmarked) [Example 378, 2-(5-Chloro-4-methylpyrimidin-2-yl)-5-{[4-methoxy-2-(2H-1,2,3-triazol-2-yl)phenyl]carbonyl}octahydropyrrolo[3,4-c]pyrrole], the Ki falls from 0.017 µM to 0.01 µM (1.7-fold). The second binds more tightly here.

Compared with `COc1ccc(C(=O)N2CC3CN(c4nc(C)c(F)c(C)n4)CC3C2)c(-n2nccn2)c1` (centres unmarked) [Example 379, 2-(5-Fluoro-4,6-dimethylpyrimidin-2-yl)-5-{[4-methoxy-2-(2H-1,2,3-triazol-2-yl)phenyl]carbonyl}octahydropyrrolo[3,4-c]pyrrole], `COc1ccc(C(=O)N2CC3CN(c4ncc(C)c(C)n4)CC3C2)c(-n2nccn2)c1` (centres unmarked) [Example 380, 2-(4,5-Dimethylpyrimidin-2-yl)-5-{[4-methoxy-2-(2H-1,2,3-triazol-2-yl)phenyl]carbonyl}octahydropyrrolo[3,4-c]pyrrole] is 1.7-fold higher in Ki: 0.009 µM for the first, 0.015 µM for the second.

First: CCc1c(C)nc(N2CC3CN(C(=O)c4ncccc4-n4nccn4)CC3C2)nc1C (centres unmarked) [Example 385, 2-(5-Ethyl-4,6-dimethylpyrimidin-2-yl)-5-{[3-(2H-1,2,3-triazol-2-yl)pyridin-2-yl]carbonyl}octahydropyrrolo[3,4-c]pyrrole]
Second: Cc1cc(C)nc(N2CC3CN(C(=O)c4ncccc4-c4nc(C)no4)CC3C2)n1 (centres unmarked) [Example 386, 2-(4,6-Dimethylpyrimidin-2-yl)-5-{[3-(3-methyl-1,2,4-oxadiazol-5-yl)pyridin-2-yl]carbonyl}octahydropyrrolo[3,4-c]pyrrole]
The Ki of the first is 22-fold lower: 0.042 µM for the first, 0.94 µM for the second. The first binds more tightly here.

`O=C(c1cccc(F)c1-c1ncccn1)N1CC2CN(c3cnc4cc(F)c(F)cc4n3)CC2C1` (centres unmarked) [Example 387, (5-(6,7-Difluoroquinoxalin-2-yl)hexahydropyrrolo[3,4-c]pyrrol-2(1H)-yl)(3-fluoro-2-(pyrimidin-2-yl)phenyl)methanone] and `COc1ccc(C(=O)N2CC3CN(c4cnc5cc(F)c(F)cc5n4)CC3C2)c(-n2nccn2)c1` (centres unmarked) [Example 389, (5-(6,7-Difluoroquinoxalin-2-yl)hexahydropyrrolo[3,4-c]pyrrol-2(1H)-yl)(4-methoxy-2-(2H-1,2,3-triazol-2-yl)phenyl)methanone] are within 1.5-fold of each other in Ki: 0.016 µM for the first, 0.022 µM for the second.

Compared with `COc1ccc(C(=O)N2CC3CN(c4ncc5cc(F)ccc5n4)CC3C2)c(-n2nccn2)c1` (centres unmarked) [Example 388], `COc1ccc(C(=O)N2CC3CN(c4cc(N(C)C)ncn4)CC3C2)c(-n2nccn2)c1` (centres unmarked) [Example 390, (5-(6-(Dimethylamino)pyrimidin-4-yl)hexahydropyrrolo[3,4-c]pyrrol-2(1H)-yl)(4-methoxy-2-(2H-1,2,3-triazol-2-yl)phenyl)methanone] is 6.3-fold higher in Ki: 0.03 µM for the first, 0.19 µM for the second. The first binds more tightly here.

Compared with `COc1ccc(C(=O)N2CC3CN(c4cc(N(C)C)nc(C)n4)CC3C2)c(-n2nccn2)c1` (centres unmarked) [Example 391, (5-(6-(Dimethylamino)-2-methylpyrimidin-4-yl)hexahydropyrrolo[3,4-c]pyrrol-2(1H)-yl)(4-methoxy-2-(2H-1,2,3-triazol-2-yl)phenyl)methanone], `Cc1ccnc(-c2ccc(F)cc2C(=O)N2CC3CN(c4nc(C)cc(C)n4)CC3C2)c1` (centres unmarked) [Example 400, (5-(4,6-Dimethylpyrimidin-2-yl)hexahydropyrrolo[3,4-c]pyrrol-2(1H)-yl)(5-fluoro-2-(4-methylpyridin-2-yl)phenyl)methanone] is 18-fold higher in Ki: 0.028 µM for the first, 0.51 µM for the second.

`Cc1cccc(-c2ccc(F)cc2C(=O)N2CC3CN(c4nc(C)cc(C)n4)CC3C2)n1` (centres unmarked) [Example 399, (5-(4,6-Dimethylpyrimidin-2-yl)hexahydropyrrolo[3,4-c]pyrrol-2(1H)-yl)(5-fluoro-2-(6-methylpyridin-2-yl)phenyl)methanone] and `Cc1ccc(-c2ccc(F)cc2C(=O)N2CC3CN(c4nc(C)cc(C)n4)CC3C2)nc1` (centres unmarked) [Example 401, (5-(4,6-Dimethylpyrimidin-2-yl)hexahydropyrrolo[3,4-c]pyrrol-2(1H)-yl)(5-fluoro-2-(5-methylpyridin-2-yl)phenyl)methanone] are within 1.5-fold of each other in Ki: 0.57 µM for the first, 0.83 µM for the second.

Same assay, conditions: read-out: OR 2 Ki

For `Cc1ccc(-c2c(F)cccc2C(=O)N2CC3CN(c4nc(C)cc(C)n4)CC3C2)nc1` (centres unmarked) [Example 374, (5-(4,6-Dimethylpyrimidin-2-yl)hexahydropyrrolo[3,4-c]pyrrol-2(1H)-yl)(3-fluoro-2-(5-methylpyridin-2-yl)phenyl)methanone], the Ki was 0.073 µM.
